These results are taken from patent publication US20200398077A1, “SYSTEM AND METHOD TO ERADICATE A MAJORITY OF DISEASE-CAUSING GERMS AND PRODUCE AVIRULENT PHENOTYPE SURVIVORS SUSCEPTIBLE TO MICROBICIDES USING A LIGHT DOSE REGIMENT” (priority 2019, published 2020).

The subject of experiment [1] is S. aureus ATCC 33592 (MRSA) Parental Wild-Type. The experiment in a line: Kirby-Bauer zones of inhibition (ZOI) antibiotic susceptibility assay, untreated MRSA parent strain. For Susceptibility class (CLSI): key: R = resistant; S = susceptible. To be noted: for Resistance/susceptibility in words (heatmap profile, FIG. 8): Parental Wild-Type, panel 120, CLSI M100-ED29:2019; for Susceptibility class (CLSI) / Zone diameter: S. aureus ATCC 33592 (MRSA), untreated parent, Kirby-Bauer ZOI. It counts as cell-based. As to the method:
(§1) Table 7 below show and example of a Clinical laboratories Science Institute (CLSI) reference table typically used by clinicians and clinical microbiology laboratories to establish whether a clinical isolate is susceptible, intermediate or resistant to a particular type of antibiotic under the Kirby-Bauer ZOI assay:
(§2) In one example, the Kirby-bauer Zones of Inhibition (Z01) assay was performed on the untreated MRSA parent strain and the two generations of the depigmented avirulent phenotype survivors susceptible to microbicides were created by applying the light dose regiment of system 10 and the method thereof discussed above based on the CLSI guidelines, See Table 8 below:
(§3) The first generation (G1) is the avirulent phenotype survivors susceptible to microbicides created by system 10 and the method thereof and the second generation (G2) is the avirulent phenotype survivors susceptible to microbicides created by system 10 and the method thereof. In this example, the ZOI for Linezolid is indicated at 90, the ZOI for Norfloxacin is indicated at 92, the ZOI for Cefprozil is indicated at 94, ZOEs 96 and 98 are blank, ZOI 100 is for Rifampin, ZIO 102 is for Oxacillin and ZOI 104 is for Tetracycline. The growth control for Generation 1 (G1), Generation 2 (G2) and the wild type (WT) is indicated at 106, 108 and 110, respectively. In this example, Methicillin Resistant, S. aureus ATCC 33592. In this example, WT is Oxacillin is considered equivalent to methicillin when describing a MRSA strain. In this example, the ZOIs were measured at 24 hours and 72-hours past-challenge. Generation 1 was serially passaged onto an antibiotic-free TSA plate, then transferred to TSB liquid culture prior to performing the ZOI assay. Generation 2 was transferred from Generation 1, serially passaged onto an antibiotic-free TSA plate, then transferred to a TSB liquid culture prior to performing the ZOI assay. […] Thus, the avirulent phenotype survivors susceptible to microbicides are stable over multiple generations.
(§4) See e.g., Clinical and Laboratory Standards Institute, Performance Standards for Antimicrobial Susceptibility Testing, 29th Edition 950 West Valley Road Suite 2500, Wayne, Pa. 19087 USA, in this example Oxacillin is synonymous with methicillin when describing MRSA.

In experiment [2] the test system is Depigmented Generation 2 avirulent phenotype survivors (MRSA G2). The experiment in a line: Kirby-Bauer zones of inhibition (ZOI) antibiotic susceptibility assay, depigmented survivor Generation 2. For Susceptibility class (CLSI): key: R = resistant; S = susceptible. The conditions noted are these: for Susceptibility class (CLSI) / Zone diameter: Depigmented Generation 2 after light dose regiment, Kirby-Bauer ZOI; for Resistance/susceptibility in words (heatmap profile, FIG. 8): MRSA G2 (Generation 2), panel 124, after light dose regiment. It counts as cell-based, S. aureus. As for the experimental part:
as §1, §2, §3, §4

The test system of experiment [3] is Depigmented Generation 1 avirulent phenotype survivors (MRSA G1). The experiment can be described thus: Kirby-Bauer zones of inhibition (ZOI) antibiotic susceptibility assay, depigmented survivor Generation 1. For Susceptibility class (CLSI): key: R = resistant; S = susceptible. It counts as cell-based, S. aureus. To be noted: for Susceptibility class (CLSI) / Zone diameter: Depigmented Generation 1 after light dose regiment, Kirby-Bauer ZOI; for Resistance/susceptibility in words (heatmap profile, FIG. 8): MRSA G1 (Generation 1), panel 122, after light dose regiment. As for the experimental part:
as §1, §2, §3, §4

Consider `CC=CC1=C(C(=O)O)N2C(=O)[C@@H](NC(=O)[C@H](N)c3ccc(O)cc3)[C@H]2SC1` [Cefprozil], for which, in experiment [1], the “Resistance/susceptibility in words (heatmap profile, FIG. 8)” value (from here on “Resistance/susceptibility in words”) was “resistant”; the “Susceptibility class (CLSI)” value was “R”; the Zone diameter result is reported as “No Inhibition”. Further, in experiment [2], the “Susceptibility class (CLSI)” value is listed as “S”; the Zone diameter was 42.98 mm; the “Resistance/susceptibility in words” value is reported as “susceptible”. Further, in experiment [3], the “Susceptibility class (CLSI)” value is recorded as “S”; the Zone diameter came to 42.99 mm; the “Resistance/susceptibility in words” value was “susceptible”.

As for `CC(=O)NC[C@H]1CN(c2ccc(N3CCOCC3)c(F)c2)C(=O)O1` [Linezolid], in experiment [1], the “Resistance/susceptibility in words” value is “susceptible”; the “Susceptibility class (CLSI)” value was “S”; the Zone diameter is listed as 31.33 mm. Also, in experiment [2], the “Susceptibility class (CLSI)” value is on record as “S” and the Zone diameter is reported as 32.8 mm. For the same compound, in experiment [3], the “Susceptibility class (CLSI)” value is “S” and the Zone diameter was determined as 35.11 mm.

In the case of `CCn1cc(C(=O)O)c(=O)c2cc(F)c(N3CCNCC3)cc21` [Norfloxacin], in experiment [1], the “Resistance/susceptibility in words” value is recorded as “susceptible”; the “Susceptibility class (CLSI)” value is “S”; the Zone diameter was 27.67 mm. Besides, in experiment [2], the “Susceptibility class (CLSI)” value was “S” and the Zone diameter was 30.17 mm. Further, in experiment [3], the “Susceptibility class (CLSI)” value is “S” and the Zone diameter came out at 32.68 mm.

For `Cc1onc(-c2ccccc2)c1C(=O)N[C@@H]1C(=O)N2[C@@H]1SC(C)(C)[C@@H]2C(=O)O` [Oxacillin], in experiment [1], the “Resistance/susceptibility in words” value is “resistant”; the “Susceptibility class (CLSI)” value is “R”; the Zone diameter result is given as “No Inhibition”. Further, in experiment [2], the “Susceptibility class (CLSI)” value is given as “S”; the Zone diameter is listed as 27.25 mm; the “Resistance/susceptibility in words” value is on record as “susceptible”. In addition, in experiment [3], the “Susceptibility class (CLSI)” value is “S”; the Zone diameter was found to be 28.04 mm; the “Resistance/susceptibility in words” value is on record as “susceptible”.

`CO[C@H]1/C=C/O[C@@]2(C)Oc3c(C)c(O)c4c(O)c(c(/C=N/N5CCN(C)CC5)c(O)c4c3C2=O)NC(=O)/C(C)=C\C=C\[C@H](C)[C@H](O)[C@@H](C)[C@@H](O)[C@@H](C)[C@H](OC(C)=O)[C@@H]1C` [Rifampin]: in experiment [1], the “Resistance/susceptibility in words” value is listed as “resistant”; the “Susceptibility class (CLSI)” value is on record as “R”; the Zone diameter entry is listed as “No Inhibition”. In addition, in experiment [2], the “Susceptibility class (CLSI)” value is on record as “S”; the Zone diameter is recorded as 48.68 mm; the “Resistance/susceptibility in words” value is given as “susceptible”. In experiment [3], the “Susceptibility class (CLSI)” value is listed as “S”; the Zone diameter came out at 45.04 mm; the “Resistance/susceptibility in words” value is given as “susceptible”.

As to `CN(C)[C@@H]1C(O)=C(C(N)=O)C(=O)[C@@]2(O)C(O)=C3C(=O)c4c(O)cccc4[C@@](C)(O)[C@H]3C[C@@H]12` [Tetracycline], the “Susceptibility class (CLSI)” value in experiment [1] is “R”; in experiment [2], “S”; in experiment [3], “S”. For the same compound, the Zone diameter in experiment [2] is on record as 31.31 mm; in experiment [3] it was 34.66 mm.
